Measured values reported in patent US20100248229A1, “INVITRO HUMAN EMBRYONIC MODEL AND A METHOD THEREOF” (Stempeutics Research Private Limited, priority 2007, published 2010).
“Also recorded” adds a separate entry of the source.

Key:
Assay type in all cases: cell-based, human
[1] = test system: EBs derived from hESC line HUES9; experiment: Morphology of EBs under the microscope; settings: 12.5 pg/ml for 48 hrs, day 4.5
Text: Exposure of EBs to LPS: EBs at day-2.5 were exposed to 12.5 pg/ml of Endotoxin/lipopolysaccharide (LPS) (Sigma) for 48 hrs supplemented in culture medium. The normal and the endotoxin treated EBs were harvested on day 4.5. Post exposure, the control and endotoxin treated EBs were divided in two groups. One group was lysed in TRIZOL for RNA isolation and the other group was fixed in 4% paraformaldehyde for immunofluorescence. The expression profile of the ectoderm, endoderm, mesoderm and trophectoderm lineage markers like PHI-tubulin, GATA4, BMP2, Brachury and β-hCG etc. were studied by RT-PCR and Immunofluorescence. The expression of the LPS-inducible and pluripotency related DNA binding protein HMGB1 was also studied in both the control and treated EBs.
The HUES9 cells were harvested on day 5 and used for induction of EBs. The control EBs were collected on day 4.5 of culture (FIG. 4b). The LPS treated EBs were also collected on day 4.5 and were compared with the normal for morphological changes under the microscope (FIG. 4c). […] The normal and LPS treated EBs were screened for pluripotency and the germ lineage markers. […] HMGB1 mRNA expression was not found in the normal EBs (FIG. 5). […] Immunofluorescence localization of HMGB1 and the mesoderm marker Brachury was done to check the protein expressions. […]

[2] = test system: EBs derived from hESC line HUES9; experiment: Comet assay: DNA fragmentation in EBs; settings: EBs exposed for 48 hours
Protocol: Comet assay: Detection of DNA damage in individual EBs was carried out with a slight modification of the method described by. Comet tail length was calculated by measuring the streak of DNA comet tail between the edge of the embryoid bodies till the end of tail using Nikon Eclipse 90i microscope (Nikon Corporation, Japan) and Image-Pro Express software (Media Cybernetics, Inc, Silver Spring, Md.).

EBs [3] = experiment: Methylation specific PCR (MSP) and mRNA expression of epigenetically regulated genes in EBs; settings: 48 hrs, 5 ug/ml
Text: Methylation status of several of the epigenetically regulated genes and the imprinted genes in response to exposure to various compounds/drugs or biologicals were screened.

EBs [4] = experiment: Effect on the germ lineages: RT-PCR of pluripotency and lineage markers in four day old EBs; settings: 12 pg/ml for 2 to 4 days
Protocol: Day 4 to 10 old EBs were maintained for 2 to 10 days in presence or absence of various (atleast 8 different) dilutions of the drug supplemented to the standard EB culture media. At the end of the incubation period the EBs were collected and the RNA is isolated from both the control and treated groups. The RNA was used for RT-PCR analysis of a set of developmentally important genes, pluripotency markers like (Nanog, Oct4, Sox2, and HMGB 1), lineage markers for ectoderm, endoderm, mesoderm and trophectoderm listed in table 1, 2, 3, 4, and also for a set of epigenetic signature genes (table nos. 6-7) identified by applicant. Alteration in the expression patterns of these genes in presence or absence of the compound in these EBs indicates their embryotoxic effect and potential to perturb the formation of specific or multiple lineages.
Four day old EBs were exposed to gram negative bacterial endotoxins/LPS at a concentration of 12 pg/ml for 2 to 4 days. The EBs were collected and analysed for pluripotency markers like Oct4, Sox2, HMGB1, and lineage markers like Nestin, PIII-tubulin, GATA4, BMP2, Brachury, Hand1 and BMP4 were studied, by RT-PCR. […] HMGB 1 expression was not found in these normal EBs. […] However, the mesoderm markers BMP2, Hand1, BMP4 and Brachury were silenced in the endotoxin treated EBs. […] This also explains many birth defects, which occurs as a result of gram negative bacterial infections. The expression of the LPS inducible cytokine and pluripotency associated gene HMGB1 in the EBs upon LPS exposure indicate its probable role in the formation of poorly formed embryos during such infections.

EBs [5] = experiment: Differentiation of EBs into tissues of mesoderm origin / osteoblast differentiation (von Kossa, Alizarin Red); settings: for osteoblast differentiation (mineralization by Alizarin Red and von Kossa staining): 15 days of differentiation
Text: The EBs were used to direct their differentiation into tissues of the ectoderm (nerve, skin), endoderm (pancreas, lungs), mesoderm (bone, blood, cardiomyocytes) and trophectoderm lineages (placenta) using known and published methods (Bader et al., 2000; Buttery et al., 2001; Lumelsky et al., 2001; Lee et al; 2000; Schuliner et al., 2001). A description of the methods used for differentiation of hESC to various tissues of the ectoderm, endoderm, mesoderm and trophectoderm lineages can be found in Hyslop et al. (2005). The ability of the compound/drug to inhibit the differentiation of EBs into these tissues of any particular type will indicate the possibility of developmental defect induced by the drug.
Endotoxins/LPS silenced the expression of mesoderm specific genes in the EBs. […] To confirm this effect the LPS exposed EBs were directed towards tissues of mesoderm origin like cardiomyocytes, blood or bone. […] This indicates the possibility of defects in the blood, bone or heart formation as a result of endotoxin exposure during fetal development.
EBs derived from the human embryonic stem cell (hESC) line HUES9 were exposed to 12.5 pg/ml of LPS for 48 hrs. The expression profile of the ectoderm, endoderm, mesoderm and trophectoderm lineage markers like βIII-tubulin, GATA4, BMP2, Brachury and β-hCG were studied, by RT-PCR and Immunofluorescence. Inhibition of mesoderm induction was confirmed by RT-PCR analysis for hANP, cTnT, ABCG2, GATA2, BMP4 and HAND1. Osteoblast differentiation was induced in the EBs, and confirmed by von Kosa and Alizarin red staining. A comet assay was also done to assess the degree of apoptosis in these EBs.
Osteoblast differentiation: To assess the differentiating potential of EBs towards tissues of mesoderm origin, embryoid bodies were produced and exposed to LPS as described above. The normal and LPS treated EBs, 30 each, were subjected to osteoblast differentiation from day 5.5 onwards. To stimulate differentiation into osteogenic cells, ES medium containing 10^−8 M Dexamethasone, 50 μg/ml L-ascorbic acid and 5 mM Sodium-beta-glycophosphate was used. The medium was changed every 2-3 days and the differentiation was continued upto 15 days. The osteoblast differentiation was characterized by identifying mineralized areas using von Kossa and Alizarin Red staining. These were visualized and acquired using a Nikon Eclipse 90i microscope (Nikon Corporation, Japan).

[6] = EBs pre-exposed to 12.5 pg/ml for 48 hrs

lipopolysaccharide [LPS]
morphology (shape, size or numbers) of treated vs normal EBs [1]: did not show any visible morphological differences | DNA tailing or fragmentation compared to control [2]: more DNA tailing or fragmentation | DNA tailing or fragmentation (comet tail length, average) ([2]; control 2.48±1.0701 μm): 21.48±12.443 μm | mRNA expression of SDHD, DYPS and CDH1 (EBs [3]; control EBs positive): negative mRNA expression/silencing | methylation status of SDHD, DYPS and CDH1 (MSP after bisulphite treatment) (EBs [3]; control: one of the alleles methylated): both the alleles of these genes were methylated | expression of Nestin, βIII-tubulin and GATA4 (RT-PCR) (EBs [4]): positive expression | expression of mesoderm markers BMP2, Hand1, BMP4 and Brachury (RT-PCR) (EBs [4]): silenced | expression of HMGB1 (RT-PCR) (EBs [4]; not found in normal EBs): positive expression | efficiency for attachment and proliferation during induction of osteogenic differentiation, treated vs control EBs (EBs [5]; [6]): no differences were found | osteoblast differentiation (mineralization by Alizarin Red and von Kossa staining) (EBs [5]; [6]): failed to differentiate into functional osteoblasts; also recorded: failed to undergo osteoblast differentiation | osteoblast differentiation (mineralization by Alizarin Red and von Kossa staining) (EBs [5]; EBs pre-exposed to 12.5 pg/ml for 48 hrs, listed as lipopolysaccharides): absence of mineralization | differentiation of exposed EBs into tissues of mesoderm origin (cardiomyocytes, blood or bone) (EBs [5]; LPS exposed EBs): failure to differentiate
